System: IFN-gamma
Assay: IFN-gamma production by PBMC from healthy volunteers, CBA
Assay type: cell-based, human
Details: 24 hours, mean ± standard error, n=13
Experimental: CBA protocol was followed according to the manufacturer's instructions. The election of microparticles was performed following the summary of Figure 1.
The acquisition on samples was performed with the BD FACS Array Bioanalyser System (FACSArray, Becton Dickinson, San José, CA, USA) and the analysis of the results was completed with the software FCAP Array (Becton Dickinson) in a PC computer.
Briefly, the experimental protocol consisted of a plate pre-washing out with Wash Buffer. After decantation, the mixture of capture microparticles was re-suspended in the vortex. Standards and samples were added in the adequate dilution. After permanent stirring incubation during 1 h, the PE detection reagent was added and incubated again during 2h at room temperature. After a washing-out, the acquisition was performed in the flow cytometer. Table 3. -Kit CBA Human Soluble Protein Multiplex Flex Set System.
PBMC (5 x 10^4 cells per well) from 13 healthy volunteers were cultured in duplicate in 200 µl of complete medium supplemented with the highest solvent concentration (10^-6 M), and 10^-6 M, 10^-7 M and 10^-8 M of compound 12 in the presence or absence, either of LPS (10 µg/ml), or anti-CD3 (12.5 ng/ml) + anti-CD28 (1/3x10^5), during 24 hours. Culture supernatants were frozen at -20°C and the concentration of IFN-gamma was quantified by BD FACS Array Bioanalyser by using CBA Flex Set (Becton Dickinson), specific to determine the concentration of IFN-gamma, following the manufacturer instructions.

## Cc1nc(OC2CCCC2)c(-c2ccc(S(C)(=O)=O)cc2)s1 [compound 12, 4-cyclopentyloxy-5-(4-methylsulfonyl-phenyl)-2-methylthiazole]
LPS (10µg/ml), 10^-6 M, vehicle 860.42±105.00, p 0.011
  IFN-gamma production in PMBC from healthy volunteers: 649.61±120.00 (0.011) pg/mL
LPS (10µg/ml), 10^-7 M, vehicle 860.42±105.00, p 0.552
  IFN-gamma production in PMBC from healthy volunteers: 919.53±130.00 (0.552) pg/mL
LPS (10µg/ml), 10^-8 M, vehicle 860.42±105.00, p 0.382
  IFN-gamma production in PMBC from healthy volunteers: 1049.85±230.00 (0.382) pg/mL
anti-CD3 (12.5 ng/ml) + anti-CD28 (1/3x10^5), 10^-6 M, vehicle 11802.22±1300.00, p 0.019
  IFN-gamma production in PMBC from healthy volunteers: 7927.17±1003.00 (0.019) pg/mL
anti-CD3 (12.5 ng/ml) + anti-CD28 (1/3x10^5), 10^-7 M, vehicle 11802.22±1300.00, p 0.917
  IFN-gamma production in PMBC from healthy volunteers: 11552.08±1600.00 (0.917) pg/mL
anti-CD3 (12.5 ng/ml) + anti-CD28 (1/3x10^5), 10^-8 M, vehicle 11802.22±1300.00, p 0.196
  IFN-gamma production in PMBC from healthy volunteers: 10254.66±1500.00 (0.196) pg/mL
medium, 10^-6 M, vehicle 283.78±90.00, p 0.279
  IFN-gamma production in PMBC from healthy volunteers: 189.72±40.00 (0.279) pg/mL
medium, 10^-7 M, vehicle 283.78±90.00, p 0.807
  IFN-gamma production in PMBC from healthy volunteers: 296.28±90.00 (0.807) pg/mL
medium, 10^-8 M, vehicle 283.78±90.00, p 0.807
  IFN-gamma production in PMBC from healthy volunteers: 279.16±60.00 (0.807) pg/mL
